Counter-ions that a name gives are not always drawn.
Columns and labels:
all test organisms = assay: MIC, micro broth dilution (summary in text); type: cell-based; details: planktonic cells, read-out: MICs ranging over all test organisms
Protocol: An assay was made using a minimum inhibitory concentration (MIC) and minimum bactericidal concentration (MBC) and minimum fungicidal concentration (MFC) determination. The MIC was determined by the micro broth dilution method in 96-well plates. […] A 10 μL containing 1×10^5 bacterial cells or 2×10^3 fungal cells were added to each well. The inoculated plates were covered with a lid, sealed with Parafilm, and incubated for 24 h at 37° C. with slight rocking on a tilting platform shaker. After incubation, the optical density at 600 nm (OD 600) of the cultures in each well was measured using an xMark™ Microplate Absorbance Spectrophotometer (Bio-Rad). The MIC was defined as the lowest concentration of antimicrobial compound at which the culture OD600 values were similar to uninoculated control wells. MBCs and MFCs were determined by transferring 100 μL from each well with no apparent growth onto appropriate agar plates, followed by incubation for 24 h at 37° C.

[1] = tested on: 48-h-old biofilms of bacterial and fungal strains; assay: MBEC assay, 24-h exposure; type: cell-based; details: 24 h of treatment
Protocol: A biofilm cultivation cell composition was provided. This fifth composition was created using an MBEC Assay® biofilm inoculator, consisting of a polystyrene lid with 96 downward-protruding pegs and a corresponding base used to grow biofilms. A standardized inoculum was diluted in an appropriate biofilm growth medium to achieve a viable cell count of 1.5×10^6 CFU/mL of bacterial cells or 5×10^5 CFU/mL of fungal cells. Then, 150 μL of this inoculum was transferred into each appropriate well, and the peg lids were inserted into the microtiter plates. The plates were sealed with Parafilm and were incubated at optimum temperature for 48 h with slight rocking for bacteria and shaking at 200 rpm for fungal strains. After incubation, the peg lid was removed from the base and rinsed twice with sterile phosphate-buffered saline (PBS) for 2 min to remove loosely attached non-sessile cells. Before the antimicrobial challenge, the pegs in column 1 (n=8) were considered the biofilm growth control; these pegs were removed from the lids, placed into 200 μL of recovery medium, and analyzed for starting biofilm cell numbers as described below. […] After the antimicrobial challenge, the pegs were rinsed twice with sterile PBS for 2 min and placed into a new 96-well plate containing 200 μL of recovery medium. The recovery plates were sealed with Parafilm, and biofilm cells were dislodged from the pegs by sonication for 30 min with a Branson 3510 bath sonicator. The biofilm cells in the recovery medium were serially diluted, and a drop dilution assay was performed to enumerate the viable cells. MBEC values were determined as the minimum concentration of antimicrobials that yielded a viable cell count at or lower than the 125 CFU/mL detection limit.

E. coli SK2 = assay: MBC/MFC determination; type: cell-based, Escherichia coli; details: alone
Protocol: An assay was made using a minimum inhibitory concentration (MIC) and minimum bactericidal concentration (MBC) and minimum fungicidal concentration (MFC) determination. The MIC was determined by the micro broth dilution method in 96-well plates. Serial two-fold dilutions of tetrasodium EDTA (from 2% to 0.015%), ethanol (from 50% to 0.1%) and chlorhexidine HCl (from 100 μg/mL to 0.025 μg/mL) were prepared in MH broth with a final volume of 90 μL per well. A 10 μL containing 1×10^5 bacterial cells or 2×10^3 fungal cells were added to each well. The inoculated plates were covered with a lid, sealed with Parafilm, and incubated for 24 h at 37° C. with slight rocking on a tilting platform shaker. After incubation, the optical density at 600 nm (OD 600) of the cultures in each well was measured using an xMark™ Microplate Absorbance Spectrophotometer (Bio-Rad). […] MBCs and MFCs were determined by transferring 100 μL from each well with no apparent growth onto appropriate agar plates, followed by incubation for 24 h at 37° C.

C. albicans ON47 = assay: Checkerboard titration, FICI; type: cell-based, Candida albicans; details: for concentration in combination: EDTA + ethanol
Protocol: A fourth composition and solution included tetrasodium EDTA with ethanol or chlorhexidine HCl. This fourth composition and solution were created using checkerboard titration methods using micro broth dilution in 96-well microtiter plates. The concentrations of antimicrobials used were based on previously determined MIC values. Briefly, 200 μL, of two-fold dilutions of tetrasodium EDTA and ethanol or chlorhexidine HCl were prepared in MH or MH II broth with standardized cell suspension. […] Microtiter plates were incubated at 37° C. for 24 h, and the results were analyzed. Each test was performed in duplicate and included a growth control without adding any antimicrobials.

SMILES	MIC (all test organisms) [µg/mL]	concentration alone able to eradicate all established biofilms [1]	MBC/MFC (E. coli SK2)	Chlorhexidine HCl concentration in combination (C. albicans ON47; EDTA + chlorhexidine HCl) [µg/mL]	EDTA concentration in combination (C. albicans ON47; EDTA + chlorhexidine HCl) [% w/v]	concentration in combination (C. albicans ON47) [% w/v]
[H]/N=C(\N/C(=N/[H])NCCCCCCNC(=N)NC(=N)Nc1ccc(Cl)cc1)Nc1ccc(Cl)cc1 [Chlorhexidine HCl, 1,6-bis(4′-chlorophenylbiguanide) hexane]	0.1 to 50	100 µg/mL	0.8 µg/mL	0.8		
O=C([O-])CN(CCN(CC(=O)[O-])CC(=O)[O-])CC(=O)[O-].[Na+].[Na+].[Na+].[Na+] [EDTA, tetrasodium EDTA]		4%	0.5 % w/v		0.125	0.25
CCO [Ethanol, ethanol]		5%	25 % w/v			0.4

From patent US20230263757A1, “DISINFECTING WIPE KIT FOR CENTRAL VENOUS ACCESS DEVICES” (SterileCare Inc., priority 2022, published 2023)
